Results on one compound are retold here after patent publication US11497785B2, “Oral anti-parasitic composition” (Mars, Incorporated, priority 2013, dated 2022).

Converted amounts (≈) assume the structure as drawn.

The experiment concerns Neospora caninum. The experiment can be described thus: Proliferation assay of Neospora caninum in HFF cells, tritiated uracil incorporation. It is filed as cell-based. To be noted: positive control, read-out: ICSO. Here is the method: In order to solubilize the essential oils, the oils were diluted in dimethyl sulfoxide (DMSO) and then spread in the cell culture medium (DMEM) that was supplemented with 10% fetal calf serum (D10). DMSO was also used at a final concentration not exceeding 0.1%. Separate cultures of both parasites, Toxoplasma gondii and Neospora caninum, were prepared in vitro in human cell type HFF (Human Foreskin Fibroblasts), grown at 37° C. under 5% CO2 in a D10 medium. Both cultures were similar, the inoculum used for the various tests were the same, […] per well. It was observed that growing Neospora caninum is slower than that of Toxoplasma gondii.
Proliferation of the parasite in the cells is measured by counting the specific radioactivity of the incorporated tritiated uracil and compared to the control without essential oil (100% proliferation). The test is performed in 24-well plates and the whole test lasts about 24 hours. The positive control is achieved using pyrimethamine (ICSO: 0.1 μg/mL).
Values represent inhibition of proliferation.
The inhibition of proliferation was measured by incorporating tritiated uracil in both Toxoplasma gondii and Neospora caninum and the viability of HFF cells was assessed using MTT assay.

With `CCc1nc(N)nc(N)c1-c1ccc(Cl)cc1` [pyrimethamine], the IC50 came out at 0.1 µg/mL (≈ 0.402 µM).
